In US20080015260A1, “Pharmaceutical compositions having improved stability and methods for preparation and use” (Kiel Laboratories, Inc., priority 2006, published 2008):
Counter-ions that a name gives are not always drawn.

Assay: Conversion of API to insoluble tannate complex in reaction mixtures (centrifugation, % converted insoluble)
Type: physicochemical
Conditions: for conversion to the tannate complex at reduced Neusilin® levels: ½ (4.4 wt%) and ¼ (2.2 wt%) Neusilin®
Description: The following example is a series of reaction mixtures for suspension formulations containing phenylephrine HCl, tannic acid and MAS or various concentrations of Neusilin®:
Analysis of the above suspensions was carried out by removing 10 gms of product and centrifuging. The amount of API found in the insoluble portion of the suspension was reported as the % converted insoluble and the liquid portion as the % converted soluble.
Analysis of the above suspension was carried out by removing 10 gms of product and centrifuging. The amount of API found in the insoluble portion of the suspension was reported as the % converted insoluble and the liquid portion as the % converted soluble.

Row | conversion to the tannate complex at reduced Neusilin® levels | increase in conversion to the tannate complex with Neusilin® in the suspension (Neusilin® 8.7 wt% versus MAS 8.7 wt%, FIG. 1) [%] | Structure (SMILES) | effect of Neusilin® on level of conversion to the tannate complex compared to MAS (Neusilin® versus MAS, FIG. 2, FIG. 3)
1 | same level of conversion | – | CCN(CC)CCOCCOC(=O)C1(c2ccccc2)CCCC1 [carbetapentane, Carbetapentane Citrate] | does not significantly affect the level of conversion
2 | same increase in conversion | > 30 | CNC[C@H](O)c1cccc(O)c1 [phenylephrine, Phenylephrine HCl] | –
